Assay results published in the kinase profiling compilation of Christmann-Franck et al. (2016).

Experiments:
AAK1 (human) = AAK1 (human) (UniProt Q2M2I8); test: KINOMEscan competition binding; conditions: compound 10.0 µM
BTK (human) = BTK (human) (UniProt Q06187); test: KINOMEscan competition binding; conditions: compound 10.0 µM
CDK16 (human) = CDK16 (human) (UniProt Q00536); test: KINOMEscan competition binding; conditions: compound 10.0 µM
CDK7 (human) = CDK7 (human) (UniProt P50613); test: KINOMEscan competition binding; conditions: compound 10.0 µM
CSNK2A1 (human) = CSNK2A1 (human) (UniProt P68400); test: KINOMEscan competition binding; conditions: compound 10.0 µM
CSNK2A2 (human) = CSNK2A2 (human) (UniProt P19784); test: KINOMEscan competition binding; conditions: compound 10.0 µM
DAPK1 (human) = DAPK1 (human) (UniProt P53355); test: KINOMEscan competition binding; conditions: compound 10.0 µM
DAPK2 (human) = DAPK2 (human) (UniProt Q9UIK4); test: KINOMEscan competition binding; conditions: compound 10.0 µM
DAPK3 (human) = DAPK3 (human) (UniProt O43293); test: KINOMEscan competition binding; conditions: compound 10.0 µM
HIPK1 (human) = HIPK1 (human) (UniProt Q86Z02); test: KINOMEscan competition binding; conditions: compound 10.0 µM
LATS2 (human) = LATS2 (human) (UniProt Q9NRM7); test: KINOMEscan competition binding; conditions: compound 10.0 µM
MAP2K3 (human) = MAP2K3 (human) (UniProt P46734); test: KINOMEscan competition binding; conditions: compound 10.0 µM
MAPK12 (human) = MAPK12 (human) (UniProt P53778); test: KINOMEscan competition binding; conditions: compound 10.0 µM
MINK1 (human) = MINK1 (human) (UniProt Q8N4C8); test: KINOMEscan competition binding; conditions: compound 10.0 µM
PIK3C2B (human) = PIK3C2B (human) (UniProt O00750); test: KINOMEscan competition binding; conditions: compound 10.0 µM
PIK3CA (human) = PIK3CA (human) (UniProt P42336); test: KINOMEscan competition binding; conditions: compound 10.0 µM
[1] = system: PIK3CA (human), P42336 [E545K]; test: KINOMEscan competition binding; conditions: compound 10.0 µM
PIK3CB (human) = PIK3CB (human) (UniProt P42338); test: KINOMEscan competition binding; conditions: compound 10.0 µM
PIK3CD (human) = PIK3CD (human) (UniProt O00329); test: KINOMEscan competition binding; conditions: compound 10.0 µM
PIK3CG (human) = PIK3CG (human) (UniProt P48736); test: KINOMEscan competition binding; conditions: compound 10.0 µM
PIM1 (human) [2] = target: PIM1 (human) (UniProt P11309); test: KINOMEscan competition binding; conditions: compound 10.0 µM
PIM2 (human) [3] = target: PIM2 (human) (UniProt Q9P1W9); test: KINOMEscan competition binding; conditions: compound 10.0 µM
PIM3 (human) = PIM3 (human) (UniProt Q86V86); test: KINOMEscan competition binding; conditions: compound 10.0 µM
PLK4 (human) = PLK4 (human) (UniProt O00444); test: KINOMEscan competition binding; conditions: compound 10.0 µM
RPS6KA4 KD2 (human) = RPS6KA4 KD2 (human) (UniProt O75676); test: KINOMEscan competition binding; conditions: compound 10.0 µM
STK17B (human) = STK17B (human) (UniProt O94768); test: KINOMEscan competition binding; conditions: compound 10.0 µM
TAOK1 (human) = TAOK1 (human) (UniProt Q7L7X3); test: KINOMEscan competition binding; conditions: compound 10.0 µM
PIM1 (human) [4] = target: PIM1 (human) (UniProt P11309); test: SelectScreen, TR FRET
PIM2 (human) [5] = target: PIM2 (human) (UniProt Q9P1W9); test: SelectScreen, TR FRET
GAK (human) = GAK (human) (UniProt O14976); test: KINOMEscan competition binding; conditions: compound 10.0 µM
MYLK (human) = MYLK (human) (UniProt Q15746); test: KINOMEscan competition binding; conditions: compound 10.0 µM
PLK1 (human) = PLK1 (human) (UniProt P53350); test: KINOMEscan competition binding; conditions: compound 10.0 µM
PLK3 (human) = PLK3 (human) (UniProt Q9H4B4); test: KINOMEscan competition binding; conditions: compound 10.0 µM
RAF1 (human) = RAF1 (human) (UniProt P04049); test: KINOMEscan competition binding; conditions: compound 10.0 µM
RPS6KA2 KD2 (human) = RPS6KA2 KD2 (human) (UniProt Q15349); test: KINOMEscan competition binding; conditions: compound 10.0 µM
TTK (human) [6] = target: TTK (human) (UniProt P33981); test: KINOMEscan competition binding; conditions: for kinase still bound, per cent of control: compound 10.0 µM
PTK2 (human) = PTK2 (human) (UniProt Q05397); test: KINOMEscan competition binding; conditions: compound 10.0 µM
STK33 (human) = STK33 (human) (UniProt Q9BYT3); test: KINOMEscan competition binding; conditions: compound 10.0 µM
TTK (human) [7] = target: TTK (human) (UniProt P33981); test: SelectScreen, TR FRET
CDC42BPB (human) = CDC42BPB (human) (UniProt Q9Y5S2); test: KINOMEscan competition binding; conditions: compound 10.0 µM
DDR1 (human) = DDR1 (human) (UniProt Q08345); test: KINOMEscan competition binding; conditions: compound 10.0 µM
MAPK8 (human) = MAPK8 (human) (UniProt P45983); test: KINOMEscan competition binding; conditions: compound 10.0 µM
MKNK2 (human) = MKNK2 (human) (UniProt Q9HBH9); test: KINOMEscan competition binding; conditions: compound 10.0 µM
RPS6KA1 KD2 (human) = RPS6KA1 KD2 (human) (UniProt Q15418); test: KINOMEscan competition binding; conditions: compound 10.0 µM
RPS6KA6 KD2 (human) = RPS6KA6 KD2 (human) (UniProt Q9UK32); test: KINOMEscan competition binding; conditions: compound 10.0 µM
STK24 (human) = STK24 (human) (UniProt Q9Y6E0); test: KINOMEscan competition binding; conditions: compound 10.0 µM
TLK1 (human) = TLK1 (human) (UniProt Q9UKI8); test: KINOMEscan competition binding; conditions: compound 10.0 µM
CLK2 (human) = CLK2 (human) (UniProt P49760); test: KINOMEscan competition binding; conditions: compound 10.0 µM
EIF2AK2 (human) = EIF2AK2 (human) (UniProt P19525); test: KINOMEscan competition binding; conditions: compound 10.0 µM
MAPK10 (human) = MAPK10 (human) (UniProt P53779); test: KINOMEscan competition binding; conditions: compound 10.0 µM
MAPK14 (human) = MAPK14 (human) (UniProt Q16539); test: KINOMEscan competition binding; conditions: compound 10.0 µM
MAPK15 (human) = MAPK15 (human) (UniProt Q8TD08); test: KINOMEscan competition binding; conditions: compound 10.0 µM
MAPK9 (human) = MAPK9 (human) (UniProt P45984); test: KINOMEscan competition binding; conditions: compound 10.0 µM
MYLK4 (human) = MYLK4 (human) (UniProt Q86YV6); test: KINOMEscan competition binding; conditions: compound 10.0 µM
PAK2 (human) = PAK2 (human) (UniProt Q13177); test: KINOMEscan competition binding; conditions: compound 10.0 µM
PAK7 (human) = PAK7 (human) (UniProt Q9P286); test: KINOMEscan competition binding; conditions: compound 10.0 µM
STK17A (human) = STK17A (human) (UniProt Q9UEE5); test: KINOMEscan competition binding; conditions: compound 10.0 µM
STK25 (human) = STK25 (human) (UniProt O00506); test: KINOMEscan competition binding; conditions: compound 10.0 µM
TAOK3 (human) = TAOK3 (human) (UniProt Q9H2K8); test: KINOMEscan competition binding; conditions: compound 10.0 µM
TLK2 (human) = TLK2 (human) (UniProt Q86UE8); test: KINOMEscan competition binding; conditions: compound 10.0 µM
ZAP70 (human) = ZAP70 (human) (UniProt P43403); test: KINOMEscan competition binding; conditions: compound 10.0 µM

Chain of PIM1 (human) (P11309 whole entry, looked up): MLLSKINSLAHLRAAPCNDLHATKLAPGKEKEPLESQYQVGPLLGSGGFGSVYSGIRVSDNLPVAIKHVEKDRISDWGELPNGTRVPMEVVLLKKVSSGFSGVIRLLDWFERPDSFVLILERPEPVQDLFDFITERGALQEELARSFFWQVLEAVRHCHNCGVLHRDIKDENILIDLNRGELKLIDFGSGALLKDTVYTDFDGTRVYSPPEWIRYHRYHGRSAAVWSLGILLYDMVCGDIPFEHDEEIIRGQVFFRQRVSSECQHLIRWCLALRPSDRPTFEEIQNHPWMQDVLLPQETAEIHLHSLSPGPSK
Chain of PIM2 (human) (Q9P1W9 whole entry, looked up): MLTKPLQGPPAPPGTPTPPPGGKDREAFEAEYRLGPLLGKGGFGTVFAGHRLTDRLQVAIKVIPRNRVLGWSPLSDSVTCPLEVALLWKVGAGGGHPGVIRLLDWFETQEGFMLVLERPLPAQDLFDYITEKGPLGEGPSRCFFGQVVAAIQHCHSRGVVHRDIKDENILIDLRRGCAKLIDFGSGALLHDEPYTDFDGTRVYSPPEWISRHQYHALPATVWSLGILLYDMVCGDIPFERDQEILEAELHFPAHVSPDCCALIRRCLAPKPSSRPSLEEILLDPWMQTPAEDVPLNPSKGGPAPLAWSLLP
Chain of TTK (human) (P33981 whole entry, looked up): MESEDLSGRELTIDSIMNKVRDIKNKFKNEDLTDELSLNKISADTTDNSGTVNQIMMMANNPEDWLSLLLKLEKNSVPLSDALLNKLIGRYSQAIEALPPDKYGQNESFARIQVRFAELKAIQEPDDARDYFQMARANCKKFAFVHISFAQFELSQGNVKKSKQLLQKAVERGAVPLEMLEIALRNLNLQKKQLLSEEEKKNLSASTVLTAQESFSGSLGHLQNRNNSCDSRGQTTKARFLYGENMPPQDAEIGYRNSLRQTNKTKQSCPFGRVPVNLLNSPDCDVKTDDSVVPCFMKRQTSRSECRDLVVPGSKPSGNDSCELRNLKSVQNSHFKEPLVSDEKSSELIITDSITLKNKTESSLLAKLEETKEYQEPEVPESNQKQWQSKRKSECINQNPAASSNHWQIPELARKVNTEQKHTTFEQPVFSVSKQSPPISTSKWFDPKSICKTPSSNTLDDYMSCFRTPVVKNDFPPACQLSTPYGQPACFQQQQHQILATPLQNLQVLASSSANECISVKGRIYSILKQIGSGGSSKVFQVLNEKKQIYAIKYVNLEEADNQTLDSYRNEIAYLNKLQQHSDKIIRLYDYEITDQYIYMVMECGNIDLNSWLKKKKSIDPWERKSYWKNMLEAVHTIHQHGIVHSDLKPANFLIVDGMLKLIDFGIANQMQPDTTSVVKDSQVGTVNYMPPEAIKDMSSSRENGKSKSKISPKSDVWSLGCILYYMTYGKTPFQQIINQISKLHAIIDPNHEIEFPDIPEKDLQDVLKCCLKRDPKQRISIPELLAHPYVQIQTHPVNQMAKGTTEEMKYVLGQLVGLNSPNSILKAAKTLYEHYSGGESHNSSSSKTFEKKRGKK
Chain of RPS6KA2 KD2 (human) (Q15349 whole entry, looked up): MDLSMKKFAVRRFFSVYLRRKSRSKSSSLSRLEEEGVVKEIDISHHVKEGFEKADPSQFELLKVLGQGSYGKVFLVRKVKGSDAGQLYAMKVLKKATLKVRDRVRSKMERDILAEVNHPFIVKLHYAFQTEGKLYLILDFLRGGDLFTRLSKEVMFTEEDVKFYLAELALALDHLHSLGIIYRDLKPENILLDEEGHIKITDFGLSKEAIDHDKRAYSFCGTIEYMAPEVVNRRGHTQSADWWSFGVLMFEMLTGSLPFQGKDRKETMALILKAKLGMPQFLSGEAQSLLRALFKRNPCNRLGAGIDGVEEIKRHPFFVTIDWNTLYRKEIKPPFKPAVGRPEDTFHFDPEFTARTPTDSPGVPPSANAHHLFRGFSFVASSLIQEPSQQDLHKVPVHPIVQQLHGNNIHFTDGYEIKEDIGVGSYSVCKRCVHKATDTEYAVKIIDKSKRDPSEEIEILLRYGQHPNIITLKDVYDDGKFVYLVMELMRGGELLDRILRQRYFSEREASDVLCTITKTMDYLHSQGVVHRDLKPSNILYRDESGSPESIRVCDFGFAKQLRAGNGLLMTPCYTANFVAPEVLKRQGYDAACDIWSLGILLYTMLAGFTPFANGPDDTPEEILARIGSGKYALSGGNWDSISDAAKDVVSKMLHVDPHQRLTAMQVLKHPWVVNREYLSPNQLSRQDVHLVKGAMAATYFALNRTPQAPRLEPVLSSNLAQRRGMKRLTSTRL
Chain of PLK4 (human) (O00444 whole entry, looked up): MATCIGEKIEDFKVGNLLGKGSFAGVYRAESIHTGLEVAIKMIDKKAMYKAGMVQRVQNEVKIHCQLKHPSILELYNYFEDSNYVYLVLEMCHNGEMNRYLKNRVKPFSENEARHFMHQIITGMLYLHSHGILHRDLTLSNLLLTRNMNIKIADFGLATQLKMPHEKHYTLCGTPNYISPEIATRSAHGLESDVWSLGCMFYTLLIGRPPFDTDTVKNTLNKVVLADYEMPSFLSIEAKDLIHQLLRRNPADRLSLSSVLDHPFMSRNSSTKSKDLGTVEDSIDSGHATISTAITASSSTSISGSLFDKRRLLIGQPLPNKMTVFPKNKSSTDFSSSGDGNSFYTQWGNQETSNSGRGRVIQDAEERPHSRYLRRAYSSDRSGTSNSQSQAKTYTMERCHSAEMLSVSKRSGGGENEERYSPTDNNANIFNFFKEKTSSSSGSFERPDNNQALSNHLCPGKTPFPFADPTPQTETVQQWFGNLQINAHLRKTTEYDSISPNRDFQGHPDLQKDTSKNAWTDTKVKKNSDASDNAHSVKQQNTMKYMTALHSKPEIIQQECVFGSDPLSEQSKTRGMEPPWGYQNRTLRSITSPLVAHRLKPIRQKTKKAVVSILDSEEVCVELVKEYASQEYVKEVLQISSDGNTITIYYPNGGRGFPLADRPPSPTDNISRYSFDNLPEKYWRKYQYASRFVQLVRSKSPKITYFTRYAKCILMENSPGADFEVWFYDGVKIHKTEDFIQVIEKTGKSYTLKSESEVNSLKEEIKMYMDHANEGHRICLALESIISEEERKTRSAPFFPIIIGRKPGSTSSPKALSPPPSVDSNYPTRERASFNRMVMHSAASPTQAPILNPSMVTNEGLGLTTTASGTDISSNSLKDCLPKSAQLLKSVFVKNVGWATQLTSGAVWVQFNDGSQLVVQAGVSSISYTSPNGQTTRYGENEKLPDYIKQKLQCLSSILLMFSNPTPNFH
Chain of GAK (human) (O14976 whole entry, looked up): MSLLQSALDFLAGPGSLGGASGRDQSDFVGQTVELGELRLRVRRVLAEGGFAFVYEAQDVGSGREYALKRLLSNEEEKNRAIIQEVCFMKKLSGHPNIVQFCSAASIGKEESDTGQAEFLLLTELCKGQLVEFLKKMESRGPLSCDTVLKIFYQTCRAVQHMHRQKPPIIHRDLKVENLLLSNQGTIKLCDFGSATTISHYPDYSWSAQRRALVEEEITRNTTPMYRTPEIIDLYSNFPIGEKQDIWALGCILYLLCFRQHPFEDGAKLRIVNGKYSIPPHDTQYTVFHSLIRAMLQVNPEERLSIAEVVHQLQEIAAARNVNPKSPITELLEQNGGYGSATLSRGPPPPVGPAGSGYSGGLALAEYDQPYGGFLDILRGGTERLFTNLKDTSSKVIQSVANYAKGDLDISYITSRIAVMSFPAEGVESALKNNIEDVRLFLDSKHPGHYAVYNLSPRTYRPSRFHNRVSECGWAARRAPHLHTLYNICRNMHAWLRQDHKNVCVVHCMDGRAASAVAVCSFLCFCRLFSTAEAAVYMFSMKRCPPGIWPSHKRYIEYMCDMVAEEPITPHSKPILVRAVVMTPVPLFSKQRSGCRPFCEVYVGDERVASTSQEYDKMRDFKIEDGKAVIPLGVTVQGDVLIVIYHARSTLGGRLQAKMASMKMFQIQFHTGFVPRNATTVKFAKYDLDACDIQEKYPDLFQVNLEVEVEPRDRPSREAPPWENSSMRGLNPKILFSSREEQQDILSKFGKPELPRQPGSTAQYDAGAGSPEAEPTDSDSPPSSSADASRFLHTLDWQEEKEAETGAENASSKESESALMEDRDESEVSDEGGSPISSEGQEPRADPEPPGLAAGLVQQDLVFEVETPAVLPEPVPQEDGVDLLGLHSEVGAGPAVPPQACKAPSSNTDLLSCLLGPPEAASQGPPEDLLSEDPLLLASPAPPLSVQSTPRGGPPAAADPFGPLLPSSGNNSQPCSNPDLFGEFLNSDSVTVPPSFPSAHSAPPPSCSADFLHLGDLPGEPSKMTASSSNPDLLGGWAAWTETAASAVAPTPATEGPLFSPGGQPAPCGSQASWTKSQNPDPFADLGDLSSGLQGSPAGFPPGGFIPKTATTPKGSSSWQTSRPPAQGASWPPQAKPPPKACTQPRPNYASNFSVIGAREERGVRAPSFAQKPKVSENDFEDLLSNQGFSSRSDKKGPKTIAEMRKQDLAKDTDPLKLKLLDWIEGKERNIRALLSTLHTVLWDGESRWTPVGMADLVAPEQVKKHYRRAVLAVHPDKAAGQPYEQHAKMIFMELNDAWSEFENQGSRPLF

kinase still bound, per cent of control (AAK1 (human))	kinase still bound, per cent of control (CDK16 (human))	kinase still bound, per cent of control (CDK7 (human))	kinase still bound, per cent of control (CSNK2A1 (human))	kinase still bound, per cent of control (CSNK2A2 (human))	kinase still bound, per cent of control (HIPK1 (human))	kinase still bound, per cent of control (MAP2K3 (human))	kinase still bound, per cent of control (PIM1 (human) [2])	kinase still bound, per cent of control (PIM2 (human) [3])	kinase still bound, per cent of control (PIM3 (human))	kinase still bound, per cent of control (PLK4 (human))	kinase still bound, per cent of control (RPS6KA4 KD2 (human))	kinase still bound, per cent of control (STK17B (human))	kinase still bound, per cent of control (TAOK1 (human))	IC50 (PIM1 (human) [4])	IC50 (PIM2 (human) [5])	kinase still bound, per cent of control (GAK (human))	kinase still bound, per cent of control (PLK1 (human))	kinase still bound, per cent of control (RPS6KA2 KD2 (human))	kinase still bound, per cent of control (TTK (human) [6])	Compound	other results
34%	19%	27%	18%	7.9%	2.4%	34%	4%	0.9%	4.9%	21%	9.9%	9%	9.6%	0.215 µM	125 nM	–	–	–	–	NS(=O)(=O)c1ccc(-c2ccc(/C=C3\SC(=O)NC3=O)o2)cc1	kinase still bound, per cent of control (BTK (human)): 30%; kinase still bound, per cent of control (DAPK1 (human)): 6%; kinase still bound, per cent of control (DAPK2 (human)): 6.4%; kinase still bound, per cent of control (DAPK3 (human)): 11%; kinase still bound, per cent of control (LATS2 (human)): 8.1%; kinase still bound, per cent of control (MAPK12 (human)): 28%; kinase still bound, per cent of control (MINK1 (human)): 1.8%; kinase still bound, per cent of control (PIK3C2B (human)): 18%; kinase still bound, per cent of control (PIK3CA (human)): 15%; kinase still bound, per cent of control [1]: 20%; kinase still bound, per cent of control (PIK3CB (human)): 31%; kinase still bound, per cent of control (PIK3CD (human)): 32%; kinase still bound, per cent of control (PIK3CG (human)): 3.6%
–	–	–	33%	33%	–	–	14%	0.75%	11%	–	–	7.4%	–	9.02 µM	2910 nM	–	–	31%	–	O=C1NC(=O)/C(=C/c2ccc(-c3ccc4c(C(=O)Nc5cccc(C(F)(F)F)c5)cccc4c3)o2)S1	kinase still bound, per cent of control (CDC42BPB (human)): 28%; kinase still bound, per cent of control (DDR1 (human)): 21%; kinase still bound, per cent of control (MAPK8 (human)): 30%; kinase still bound, per cent of control (MKNK2 (human)): 34%; kinase still bound, per cent of control (RPS6KA1 KD2 (human)): 23%; kinase still bound, per cent of control (RPS6KA6 KD2 (human)): 25%; kinase still bound, per cent of control (STK24 (human)): 29%; kinase still bound, per cent of control (TLK1 (human)): 24%

The next lines start with the molecule.

Compound	kinase still bound, per cent of control (AAK1 (human))	kinase still bound, per cent of control (CDK16 (human))	kinase still bound, per cent of control (CDK7 (human))	kinase still bound, per cent of control (CSNK2A1 (human))	kinase still bound, per cent of control (CSNK2A2 (human))	kinase still bound, per cent of control (HIPK1 (human))	kinase still bound, per cent of control (MAP2K3 (human))	kinase still bound, per cent of control (PIM1 (human) [2])	kinase still bound, per cent of control (PIM2 (human) [3])	kinase still bound, per cent of control (PIM3 (human))	kinase still bound, per cent of control (PLK4 (human))	kinase still bound, per cent of control (RPS6KA4 KD2 (human))	kinase still bound, per cent of control (STK17B (human))	kinase still bound, per cent of control (TAOK1 (human))	IC50 (PIM1 (human) [4])	IC50 (PIM2 (human) [5])	kinase still bound, per cent of control (GAK (human))	kinase still bound, per cent of control (PLK1 (human))	kinase still bound, per cent of control (RPS6KA2 KD2 (human))	kinase still bound, per cent of control (TTK (human) [6])	other results
CCN(CC)C1CCN(c2ccc(Nc3ncc4c(n3)N3CCCC3C=CN4C)c(OC(C)C)c2)CC1 (centres undefined)	–	–	–	–	–	–	–	–	–	–	–	1.9%	–	–	–	–	27%	4.4%	32%	7.4%	kinase still bound, per cent of control (MYLK (human)): 25%; kinase still bound, per cent of control (PLK3 (human)): 5.8%; kinase still bound, per cent of control (RAF1 (human)): 0%
COc1cc(N(C)CCO)ccc1Nc1ncc2c(n1)N(C1CCCC1)CCC(=O)N2C	–	–	–	–	–	–	–	–	–	–	14%	–	–	–	–	–	2.4%	7.4%	–	2.2%	kinase still bound, per cent of control (PLK3 (human)): 0%; kinase still bound, per cent of control (PTK2 (human)): 17%; kinase still bound, per cent of control (RAF1 (human)): 0%; kinase still bound, per cent of control (STK33 (human)): 17%; Kd (TTK (human) [6]): 157 nM; IC50 (TTK (human) [7]): 1370 nM
CSC1=NC(=O)/C(=C/c2ccc(-c3ccc(S(N)(=O)=O)cc3)o2)S1	14%	0.1%	1.4%	–	–	6.5%	14%	1.6%	3%	1.8%	0.05%	–	–	3.6%	–	–	6.7%	–	5.3%	16%	kinase still bound, per cent of control (CLK2 (human)): 9.8%; kinase still bound, per cent of control (EIF2AK2 (human)): 17%; kinase still bound, per cent of control (MAPK10 (human)): 22%; kinase still bound, per cent of control (MAPK14 (human)): 19%; kinase still bound, per cent of control (MAPK15 (human)): 29%; kinase still bound, per cent of control (MAPK8 (human)): 31%; kinase still bound, per cent of control (MAPK9 (human)): 6%; kinase still bound, per cent of control (MYLK4 (human)): 19%; kinase still bound, per cent of control (PAK2 (human)): 34%; kinase still bound, per cent of control (PAK7 (human)): 28%; kinase still bound, per cent of control (RPS6KA1 KD2 (human)): 12%; kinase still bound, per cent of control (RPS6KA6 KD2 (human)): 18%; kinase still bound, per cent of control (STK17A (human)): 2.5%; kinase still bound, per cent of control (STK25 (human)): 32%; kinase still bound, per cent of control (TAOK3 (human)): 24%; kinase still bound, per cent of control (TLK2 (human)): 28%; kinase still bound, per cent of control (ZAP70 (human)): 32%
